In patent US10087192B2, “2-(het)aryl-substituted fused bicyclic heterocycle derivatives as pesticides” (BAYER CROPSCIENCE AKTIENGESELLSCHSAFT, priority 2015, dated 2018):

What was measured:
Format in all cases: in vivo
[1] = tested on: Ctenocephalides felis; assay: Ctenocephalides felis oral test; details: 100 ppm in citrated cattle blood, after 2 days
From the text: Ctenocephalides felis—Oral Test Solvent: dimethyl sulphoxide […] Dilution with citrated cattle blood gives the desired concentration. About 20 unfed adult cat fleas (Ctenocephalides felis) are placed into a chamber which is closed at the top and bottom with gauze. A metal cylinder whose bottom end is closed with parafilm is placed onto the chamber. The cylinder contains the blood/active compound preparation, which can be imbibed by the fleas through the parafilm membrane.

[2] = tested on: Lucilia cuprina; assay: Lucilia cuprina test; details: 100 ppm, after 2 days, L1 larvae
Method: (§1) Solvent: dimethyl sulphoxide
(§2) To produce a suitable preparation of active compound, 10 mg of active compound are mixed with 0.5 ml of dimethyl sulphoxide, and the concentrate is diluted with water to the desired concentration.
About 20 L1 larvae of the Australian sheep blowfly (Lucilia cuprina) are transferred into a test vessel containing minced horsemeat and the active compound preparation of the desired concentration.
After 2 days, the kill in % is determined. 100% means that all the larvae have been killed; 0% means that no larvae have been killed.

[3] = tested on: Spodoptera frugiperda; assay: Spodoptera frugiperda spray test (cotton leaves); details: 100 ppm, after 7 days
Method: Spodoptera frugiperda—Spray Test
Solvent: 7 parts by weight of dimethylformamide
(§3) Emulsifier: alkylaryl polyglycol ether
(§4) To produce a suitable preparation of active compound, 1 part by weight of active compound is dissolved using the stated parts by weight of solvent and made up with water containing an emulsifier concentration of 1000 ppm until the desired concentration is attained. To produce further test concentrations, the preparation is diluted with emulsifier-containing water. If the addition of ammonium salts or/and penetrants is required, these are each added in a concentration of 1000 ppm to the formulation solution.
Cotton leaves (Gossypium hirsutum) are sprayed with an active compound formulation of the desired concentration and populated with caterpillars of the armyworm (Spodoptera frugiperda).
After 7 days, the kill in % is determined. 100% means that all the caterpillars have been killed; 0% means that none of the caterpillars have been killed.

[4] = tested on: Ctenocephalides felis; assay: Ctenocephalides felis in vitro contact test with adult cat fleas; details: 5 μg/cm^2 (500 g/ha), after 48 h
Method: Ctenocephalides felis—In Vitro Contact Tests with Adult Cat Fleas
(§5) For the coating of the test tubes, 9 mg of active compound are first dissolved in 1 ml of acetone p.a. and then diluted to the desired concentration with acetone p.a. 250 μl of the solution are distributed homogeneously on the inner walls and the base of a 25 ml test tube by turning and rocking on an orbital shaker (rocking rotation at 30 rpm for 2 h). With 900 ppm active compound solution and internal surface 44.7 cm^2, given homogeneous distribution, an area-based dose of 5 μg/cm^2 is achieved.
After the solvent has evaporated off, the tubes are populated with 5-10 adult cat fleas (Ctenocephalides felis), sealed with a perforated plastic lid and incubated in a horizontal position at room temperature and ambient humidity. After 48 h, efficacy is determined. To this end, the test tubes are stood upright and the fleas are knocked to the base of the tube. Fleas which remain motionless at the base or move in an uncoordinated manner are considered to be dead or moribund.
100% efficacy means that all the fleas were dead or moribund. 0% efficacy means that no fleas were harmed.

[5] = tested on: Myzus persicae; assay: Myzus persicae spray test (Chinese cabbage leaf discs); details: 500 g/ha, after 6 days
Method: Myzus persicae—Spray Test Solvent: 78 parts by weight of acetone • • 1.5 parts by weight of dimethylformamide Emulsifier: alkylaryl polyglycol ether […] To produce further test concentrations, the preparation is diluted with emulsifier-containing water. Discs of Chinese cabbage leaves (Brassica pekinensis) infested by all stages of the green peach aphid (Myzus persicae) are sprayed with an active compound preparation of the desired concentration.

[6] = tested on: Meloidogyne incognita; assay: Meloidogyne incognita test; details: 20 ppm, after 14 days, lettuce
Method: Meloidogyne incognita Test
Solvent: 125.0 parts by weight of acetone
To produce a suitable preparation of active compound, 1 part by weight of active compound is mixed with the stated amount of solvent and the concentrate is diluted with water to the desired concentration.
Vessels are filled with sand, active compound solution, an egg/larvae suspension of the southern root-knot nematode (Meloidogyne incognita) and lettuce seeds. The lettuce seeds germinate and the plants develop. The galls develop on the roots.
After 14 days, the nematicidal efficacy in % is determined by the formation of galls. 100% means that no galls were found; 0% means that the number of galls on the treated plants corresponds to the untreated control.

[7] = tested on: Phaedon cochleariae; assay: Phaedon cochleariae spray test; details: 500 g/ha, after 7 days, larvae on Chinese cabbage leaf discs
Method: Phaedon cochleariae—Spray Test
Solvent: 78.0 parts by weight of acetone • • 1.5 parts by weight of dimethylformamide
as §3
as §4, with “water.” for “water. If the addition of ammonium salts or/and penetrants is required, these are each added in a concentration of 1000 ppm to the formulation solution.”
After 7 days, the efficacy in % is determined. 100% means that all the beetle larvae have been killed; 0% means that no beetle larvae have been killed.

[8] = tested on: Spodoptera frugiperda; assay: Spodoptera frugiperda spray test (maize leaf discs); details: 500 g/ha, after 7 days, caterpillars on maize leaf discs
Method: Spodoptera frugiperda—Spray Test Solvent: 78.0 parts by weight of acetone • • 1.5 parts by weight of dimethylformamide Emulsifier: alkylaryl polyglycol ether […] To produce further test concentrations, the preparation is diluted with emulsifier-containing water. Leaf discs of maize (Zea mays) are sprayed with an active compound preparation of the desired concentration and, after drying, populated with caterpillars of the armyworm (Spodoptera frugiperda).

[9] = tested on: Boophilus microplus; assay: Boophilus microplus injection test; details: 20 μg/animal, assessed after 7 days
Method: Boophilus microplus—Injection Test
as §1
To produce a suitable preparation of active compound, 10 mg of active compound are mixed with 0.5 ml of solvent and the concentrate is diluted with solvent to the desired concentration.
1 μl of the active compound solution is injected into the abdomen of 5 engorged adult female cattle ticks (Boophilus microplus). The animals are transferred into dishes and kept in a climate-controlled room.
Efficacy is assessed after 7 days by laying of fertile eggs. Eggs which are not visibly fertile are stored in a climate-controlled cabinet until the larvae hatch after about 42 days. An efficacy of 100% means that none of the ticks has laid any fertile eggs; 0% means that all the eggs are fertile.

[10] = tested on: Musca domestica; assay: Musca domestica test; details: 20 ppm, after 2 days, adult houseflies
Method: as §1, §2
Vessels containing a sponge treated with sugar solution and the active compound preparation of the desired concentration are populated with 10 adult houseflies (Musca domestica).
After 2 days, the kill in % is determined. 100% means that all of the flies have been killed; 0% means that none of the flies have been killed.

[11] = tested on: Rhipicephalus sanguineus; assay: Rhipicephalus sanguineus in vitro contact test with adult brown dog ticks; details: 5 μg/cm^2 (500 g/ha), after 48 h
Method: Rhipicephalus sanguineus—In Vitro Contact Tests with Adult Brown Dog Ticks
as §5
After the solvent has evaporated off, the tubes are populated with 5-10 adult dog ticks (Rhipicephalus sanguineus), sealed with a perforated plastic lid and incubated in a horizontal position in the dark at room temperature and ambient humidity. After 48 h, efficacy is determined. To this end, the ticks are knocked to the floor of the tube and incubated on a hotplate at 45-50° C. for not more than 5 min. Ticks which remain motionless on the floor or move in such an uncoordinated manner that they are unable to deliberately avoid the heat by climbing upwards are considered to be dead or moribund.
An efficacy of 100% means that all the ticks were dead or moribund. 0% efficacy means that none of the ticks had been harmed.

Compound | efficacy (kill) [1] [%] | efficacy (kill) [2] [%] | efficacy (kill) [3] [%] | efficacy [4] [%] | efficacy [5] [%] | nematicidal efficacy (formation of galls) [6] [%] | efficacy [7] [%] | efficacy [8] [%] | efficacy (laying of fertile eggs) [9] [%] | efficacy (kill) [10] [%] | efficacy [11] [%]
CCS(=O)(=O)c1ccc(-n2cnc(I)c2)nc1-c1nc2cc(C(F)(F)F)ncc2n1C [Example 14] | 100 | 100 | 100 | 100 | 100 | 100 | 100 |  |  |  | 
CCS(=O)(=O)c1ccc(-n2nccn2)nc1-c1nc2cc(C(F)(F)F)ncc2n1C [Example 17] | 98 | 100 |  | 100 | 90 |  | 100 | 100 | 100 | 85 | 100
CCS(=O)(=O)c1ccc(-n2cncn2)nc1-c1nc2cc(C(F)(F)F)ncc2n1C [Example 32] |  |  | 100 |  | 100 |  | 100 |  |  |  | 
